Assay results as given in patent US10041047B2, “Compositions and methods for epithelial stem cell expansion and culture” (The Brigham and Women's Hospital, Inc., priority 2013, dated 2018).

Assays:
[1] = test system: Lgr5+ stem/progenitor cells derived from the mouse inner ear; assay: Culture of inner ear (cochlear) Lgr5-GFP epithelial cells in Matrigel; type: cell-based; conditions: 8 day cultures; for GFP expression on addition of a growth factor: added to EGF+CV or to the EGF+bFGF combination (FIG. 14D, 14E); for cell proliferation on addition of a growth factor: EGF added to CV, others added to EGF+CV (FIG. 14D)
Source text: The same culture condition (EGF, Noggin, R-spondin1, or “ENR”) as used in Lgr5+ small intestinal stem cell cultures was first established.
Isolated organ of Corti from Lgr5-GFP mice were dissociated into single cells using accutase and cultured in multiple combinations of soluble factors and small molecules in Matrigel for 8 days. The resulting cultures were further dissociated into single cells and analyzed using FACS. […] In addition, the combination of EGF, bFGF and IGF-1 (designated as EFI) improved cell proliferation and GFP expression compared with the ENR condition (FIG. 14A-14C).
To further investigate the effects of individual growth factors when combined with CHIR and VPA, growth factors including Mitogenic growth factors (EGF, bFGF and IGF-1) as well as the Wnt agonist R-spondin 1 in combination with CHIR and VPA were tested.

[2] = test system: Lgr5+ stem cells in small intestinal crypts; assay: Small intestinal crypt culture from Lgr5-GFP mice in Matrigel: cell proliferation and Lgr5-GFP expression; type: cell-based, mouse; conditions: for effect to promote GFP expression: HDAC inhibitor added to ENR-C condition, 6 day crypt cultures, compared with VPA
Description: Crypts and single Lgr5-GFP cells were isolated as previously described (Sato et al., 2009). Briefly, the proximal half of the small intestine was harvested, opened longitudinally, and washed with cold PBS to remove luminal content. The tissue was then cut into 2-4 mm pieces with scissors and further washed 5-10 times with cold PBS by pipetting up and down using a 10-ml pipette. Tissue fragments were incubated with 2 mM EDTA in PBS for 30 min on ice. After removal of EDTA, tissue fragments were washed with PBS to release crypts. Supernatant fractions enriched in crypts were collected, passed through a 70 μm cell strainer and centrifuged at 300 g for 5 minutes. The cell pellet was re-suspended with cell culture media without growth factors and centrifuged at 150 g to remove single cells. Crypts were then cultured or used for single cell isolation. To obtain single cells, crypts were incubated in culture medium for 45 minutes at 37° C. and triturated with a glass pipette. Dissociated cells were passed through 20 μm cell strainer, negative stained with propidium iodide and single viable GFP-high cells were sorted by flow cytometry (FACS Aria, BD) as previously described (Sato et al., 2009). Small intestinal crypts isolated from Lgr5-EGFP-ires-CreERT2 mice were embedded in Matrigel and cultured under conventional culture conditions in the presence of EGF, Noggin and R-spondin 1 (collectively referred to as ENR) leading to organoids with crypts and villus-like domains and GFP^+ cells at the crypt tips, consistent with previous reports (Sato et al., 2009). Isolated crypts or single cells were cultured as previously described (Sato et al., 2009) with minimal modification. Briefly, crypts or single cells were entrapped in Matrigel and plated at the center of wells in a 24-well plate. After polymerization of Matrigel (growth factor reduced; BD Bioscience), 500 μl of culture medium (Advanced DMEM/F12 (Life Technologies)) was added containing growth factors including EGF (50 ng/ml, Life Technologies), Noggin (100 ng/ml, Peprotech) and R-spondin 1 (500 ng/ml, R&D) and small molecules including CHIR99021 (3 μM, Stemgent) and Valproic Acid (1 mM, Sigma-Aldrich). For comparison of different culture conditions, small molecules or growth factors were added to freshly isolated crypts immediately after plating in Matrigel to test the ability to minimize potential differentiation of the ISC within the crypts and thus sustain crypt cultures. Cell culture media was changed every other day. For single cell culture, cells were embedded in Matrigel containing Jagged-1 peptide (1 μM; AnaSpec) and Y-27632 (10 μM; Tocris) was added for the first 2 days. Cells were passaged either as cell colonies as previously described (Sato et al., 2009) or as single cells. For single cell passage, cell culture medium was removed and Accutase (Life Technologies) was added. After incubation at 37° C. for 10-20 minutes, cell colonies were dissociated into single cells by pipetting. Cells were then washed, embedded in fresh Matrigel and plated into 24-well plates. Cells cultured in the CV condition were passaged every 6 days at a 1:20 split ratio. Approximately half of the cultured crypts contained GFP+ cells, which is consistent with the in vivo GFP expression of Lgr5-GFP mice (FIG. 1).
The growth factors used in the ENR condition provide essential, but not adequate cues to sustain the self-renewal of Lgr5^+ stem cells. To identify factors essential to maintaining the self-renewal status of intestinal stem cells, selected small molecules that modulate signaling pathways of ISCs, such as Wnt, Notch, and BMP, were tested under the ENR condition, using the Lgr5-GFP reporter.
CHIR is a highly-specific GSK3 inhibitor that activates the Wnt/β-catenin signaling pathway (Bain et al., 2007), and has been used to maintain the self-renewal state of embryonic stem cells (Ying et al., 2008). […]

[3] = test system: human small intestinal crypts; assay: Culture of human small intestinal crypts: LGR5 expression (RT-PCR) and cell number; type: cell-based
Source text: Human small intestinal crypts were isolated from a resected normal small intestinal specimen and cultured as described in Example 1. The same cell culture solutions used in the culture of mouse small intestinal stem cells/crypts, which comprise a combination of CHIR99021 and VPA or Tubastatin A added to the ENR (EGF, Noggin, R-Spondin 1) condition, were compared to published cell culture solutions for human intestinal stem cells/crypts (Jung et al., 2011; Sato et al., 2011). RT-PCR was used to assess the maintenance of epithelial stem cells in the culture, specifically by determining the self-renewal or differentiation status. LGR5 was used as a stem cell marker and ALPI, MUC2, CHGA and LYZ were used as differentiation markers. Cell growth was assessed by counting the cell number in the cultures and by observing the morphology and size of colonies.

Lgr5+ stem cells = assay: Controlled differentiation of Lgr5+ stem cells after CV culture (RT-PCR and staining of differentiation markers); type: cell-based, mouse; conditions: colonies from 6 days CV, then 4 days with ENR plus agents (FIG. 7B)
[4] = combined with CHIR or Wnt3a, crypts 6 days (FIG. 9F)
[5] = multiple concentrations (FIG. 9E)
[6] = ENR-C condition with DAPT 5 μM, 3 days

IGF-1: mitogenic growth factor
GFP expression on addition of a growth factor [1]: slightly increased

CCCC(=O)[O-].[Na+] [Butyrate, Sodium butyrate]
effect to promote GFP expression [2]: no or only moderate effects

NC(=O)c1cccnc1 [Nicotinamide]
effect to promote GFP expression [2]: no or only moderate effects
GFP expression [2, 4]: did not promote
cell proliferation [2, 4]: did not promote
expression of stem cell marker LGR5 ([3]; added to ENR (or to the CHIR+VPA condition), RT-PCR): without great impact
proliferation of human small intestinal crypts (cell number) ([3]; cell numbers at day 9 after seeding (FIG. 25A)): increased the proliferation

CC(/C=C/C(=O)NO)=C\[C@@H](C)C(=O)c1ccc(N(C)C)cc1 [TSA, Trichostatin A]
GFP expression at multiple concentrations [2, 5]: maintained GFP expression
cell proliferation at higher concentration [2, 5]: marked proliferation inhibition effect

EGF: Epidermal Growth Factor
requirement of growth factor to maintain self-renewal of Lgr5+ stem cells ([2]; crypts 6 days in the CV condition (CHIR 3 μM, VPA 1 mM)): could be removed from the culture without impacting maintenance
proliferation of crypts ([2]; growth factor in the CV condition, 6 days): promoted the proliferation
cell proliferation on addition of a growth factor [1]: greatly increased

Cn1c(/C=C/C(=O)NO)ccc1/C=C/C(=O)c1cccc(F)c1 [MC1568]
effect to promote GFP expression [2]: no or only moderate effects

O=C(CCCCCCC(=O)NO)NO [SBHA, Suberohydroxamic acid]
effect to promote GFP expression [2]: no or only moderate effects

bFGF: mitogenic growth factor
cell proliferation on addition of a growth factor [1]: further increased
GFP expression on addition of a growth factor [1]: further increased

C[C@H](NC(=O)Cc1cc(F)cc(F)c1)C(=O)N[C@H](C(=O)OC(C)(C)C)c1ccccc1 [DAPT, N-[N-(3,5-Difluorophenacetyl)-L-alanyl]-S-phenylglycine t-butyl ester]
GFP expression [2, 6]: impaired
cell proliferation [2, 6]: impaired
Alpi expression (Lgr5+ stem cells): induced expression
ChgA expression (Lgr5+ stem cells): greatly elevated
Lgr5 expression (Lgr5+ stem cells): decreased
Lysozyme expression (Lgr5+ stem cells): greatly elevated
Muc2 expression (Lgr5+ stem cells): greatly elevated

Nc1ccccc1NC(=O)c1ccc(CNC(=O)OCc2cccnc2)cc1 [MS275]
effect to promote GFP expression [2]: no or only moderate effects

Cc1ccc2nc(NC(=O)CSc3nc4c(c(=O)n3-c3ccccc3)SCC4)sc2c1 [IWP-2, N-(6-Methyl-2-benzothiazolyl)-2-[(3,4,6,7-tetrahydro-4-oxo-3-phenylthieno[3,2-d]pyrimidin-2-yl)thio]-acetamide]
Alpi expression (Lgr5+ stem cells): preferentially induced
ChgA expression (Lgr5+ stem cells): modestly elevated
Lgr5 expression (Lgr5+ stem cells): completely abolished
Lysozyme expression (Lgr5+ stem cells): completely abolished
Muc2 expression (Lgr5+ stem cells): modestly elevated

CC(=O)Nc1ccc(C(=O)Nc2ccccc2N)cc1 [CI-994]
effect to promote GFP expression [2]: no or only moderate effects
